{"source": "patent US8227621B2", "about": "“Cyanine dyes and methods of use” (priority 2005, dated 2012)", "type_in_all_cases": "biochemical", "key": {"[1]": {"target": "human recombinant β-secretase (BACE-1) (Homo sapiens, UniProt P56817)", "sequence (P56817 46-457 limits assumed)": "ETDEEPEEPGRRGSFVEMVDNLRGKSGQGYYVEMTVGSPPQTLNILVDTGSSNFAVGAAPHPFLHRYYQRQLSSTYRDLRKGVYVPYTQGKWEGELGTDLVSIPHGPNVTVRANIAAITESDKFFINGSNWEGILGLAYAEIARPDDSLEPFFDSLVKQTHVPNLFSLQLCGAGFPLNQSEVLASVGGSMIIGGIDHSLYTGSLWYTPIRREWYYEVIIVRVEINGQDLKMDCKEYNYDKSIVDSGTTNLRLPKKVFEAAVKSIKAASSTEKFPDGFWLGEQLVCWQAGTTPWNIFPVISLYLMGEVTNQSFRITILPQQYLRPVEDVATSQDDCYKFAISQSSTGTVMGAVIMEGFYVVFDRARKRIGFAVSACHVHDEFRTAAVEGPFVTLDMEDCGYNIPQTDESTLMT", "experiment": "BACE-1 enzyme inhibition assay", "conditions": "100 nM BACE-1 mixture, 200 nM substrate Structure IV, room temperature 1 hour, Rodbard model", "experimental": "The BACE-1 assay buffer consists of 50 mM sodium acetate, 10 mM Tris-HCl, 10 mM NaCl, 0.002% Triton X-100, pH adjusted to 4.5. The BACE-1 stop buffer is a 0.8 M sodium phosphate buffer with 0.25 mg/mL BSA (pH 7.8). A characterized BACE-1 inhibitor, β-secretase inhibitor III, is purchased from Calbiochem (CA) (Cat # 565780). […] Two solid-state diode lasers at 680 nm and 780 nm are used as the excitation light sources and their corresponding fluorescence detection is accomplished by two silicon avalanche photodiodes at 710±10 nm and 810±10 nm. […]\nThe serially diluted solutions containing the BACE-1 peptide inhibitor (final concentrations from 0 to 2500 nM) were mixed with BACE-1 in BACE-1 assay buffer (total BACE-1 mixture final concentration of 100 nM) for 15 minutes followed by the addition of the BACE-1 protease substrate having Structure IV in a final concentration 200 nM. […] The fluorescence intensity was measured on Aerius® infrared imaging system (FIG. 22A)."}, "BACE-1 protease enzyme": {"target": "T1, BACE-1 protease enzyme (Homo sapiens, UniProt P56817)", "T1 construct": "purchased Calbiochem", "T1 sequence (P56817 46-457 limits assumed)": "as above", "experiment": "Effect of DMSO concentration on BACE-1 enzyme activity", "conditions": "vs absence of DMSO", "description": "In this experiment, the BACE-1 protease substrate having Structure IV (200 nM), was incubated with various amounts of BACE-1 protease enzyme (0 to 100 nM) and DMSO concentrations (e.g., 0, 2, 5 or 10%) at room temperature for 1 hour. The enzymatic reactions were then terminated upon the addition of stop buffer and the fluorescence intensities were measured on an Aerius® imaging system. The addition of stop buffer further diluted the DMSO concentrations in the reaction solution from 0, 2, 5, 10% DMSO to 0, 0.5, 1.25, 2.5%, respectively. The change in fluorescence intensity observed for the different DMSO concentrations is a reflection of the interference of DMSO on the BACE-1 enzyme activity. […] DMSO concentration increase to 5% and 10%, the BACE-1 enzyme activity decreased 20% and 35% respectively of the original enzyme activity at the absence of DMSO throughout the enzyme concentration range."}, "HIV-1 protease": {"target": "T2, HIV-1 protease (Human immunodeficiency virus type 1 group M subtype B, UniProt P04585)", "T2 construct": "Recombinant HIV-1 protease; purchased BACHEM Biosciences", "experiment": "Effect of DMSO and compound interferences on the HIV-1 protease assay", "conditions": "DMSO 0%, 2.5%, 5% and 10%; 2.5-80 nM protease", "description": "To measure the tolerance of the HIV-1 protease assay to the presence of dimethyl sulfoxide (DMSO), 1 μM of substrate was incubated with 80 nM, 40 nM, 20 nM, 10 nM, 5 nM and 2.5 nM of HIV-1 protease in an assay buffer containing 10%, 5%, 2.5% or 0% DMSO. After incubation at 37° C. for 1.5 hours, the plate was treated with 0.8 M sodium phosphate stop buffer and then scanned on Aerius® System (LI-COR® Biosciences).\nThe robustness of the protease assay was evaluated against fluorescent, color quenching and light scattering interferences, which are the three major sources of compound interferences in high-throughput fluorescent assay screening. In these experiments, protease activity of the HIV-protease assay of the invention was measured in the presence of various amounts of the interference source and compared to that in the absence of the interference.\nFluorescein, a highly fluorescent compound, was chosen as the model fluorescent compound interference source. A series of fluorescein concentrations were mixed with the HIV-1 peptide substrate in the assay buffer system. These wells were then treated either with the enzyme (positive wells) or without the enzyme (negative wells) and incubated at 37° C. for 1 hour."}, "[2]": {"system": "human recombinant β-secretase (BACE-1)", "experiment": "BACE-1 enzyme activity assay", "conditions": "200 nM substrate, 400 nM BACE-1 mixture, 100 minutes", "description": "Purified human recombinant β-secretase (BACE-1) is purchased from Calbiochem (CA). The batch size of 50 μg is supplied as a mixture of the ˜68-70 KDa proenzyme and the ˜65-67 KDa mature enzyme in lyophilized form from sterile-filtered 150 mM NaCl, 50 mM Tris-HCl, pH 7.5. The product is then re-constituted with 100 μL sterile water immediately prior to use.\nThe BACE-1 assay buffer consists of 50 mM sodium acetate, 10 mM Tris-HCl, 10 mM NaCl, 0.002% Triton X-100, pH adjusted to 4.5. […] A characterized BACE-1 inhibitor, β-secretase inhibitor III, is purchased from Calbiochem (CA) (Cat # 565780). […] Two solid-state diode lasers at 680 nm and 780 nm are used as the excitation light sources and their corresponding fluorescence detection is accomplished by two silicon avalanche photodiodes at 710±10 nm and 810±10 nm. […]\nThe effect of enzyme concentration on proteolytic activity of the β-secretase (β-site amyloid precursor protein cleaving enzyme 1; BACE-1), is shown in FIGS. 20A-C. […] The enzymatic reaction was stopped by addition of BACE-1 stop buffer and the fluorescence was recorded by Aerius® infrared imaging system. […] Based on the fluorescence standard curve obtained (FIG. 20B), the degree of hydrolysis of BACE-1 peptide was determined as 53%. With increased amount of hydrolysis, higher fluorescence increase is expected."}, "trypsin": {"system": "trypsin", "experiment": "NIR-dye labeled casein protease assay with trypsin", "conditions": "10 μg/mL aprotinin; 20 nM casein conjugate, 5 μg/mL trypsin", "description": "Casein-NIR Reporter Dye B concentration is 20 nM, trypsin concentration is 5 μg/mL, and aprotinin concentration varies from 10 μg/mL, 5 μg/mL, 1.25 μg/mL, 0.31 μg/mL, 78 ng/mL, 19.5 ng/mL, 4.9 ng/mL, to 1.2 ng/mL. Trypsin was pre-incubated with the inhibitors for 1 hour at 37° C.\nDescribed below is a general method based on the over labeling of casein, with a near-infrared dye, i.e., NIR Reporter Dye B (a NIR-dye labeled casein substrate), for a protease activity microplate assay. The model protease assay uses the labeled casein as the substrate with trypsin as the enzyme, and the fluorescence emission is measured on a LI-COR® Biosciences' Aerius® microplate reader. NIR Reporter Dye B emits at 786 nm, yet it is still a very bright dye (see, FIG. 10).\nThe proteolytic reactions are carried out in 96-well plates with 50 mM TRIS buffer pH 7.8. […] (The reagent […] and its protein labeling and purification protocols are from LI-COR® Biosciences. Casein, trypsin, and aprotinin are all purchased from Sigma-Aldrich. Protein molecular weight markers labeled with a 700 nm fluorescence dye are from LI-COR® Biosciences.) The reactants are incubated at 37° C. for one hour and then stopped by adding aprotinin to 10 μg/mL final concentration. Then, after being spun, the plates are read on an the LI-COR® microplate reader Aerius®. […]"}}, "note": "Square brackets hold non-standard residues; d marks the D form. Peptide text beside a SMILES is read from it. NIR Reporter Dye A = not defined here; Sta = CC(C)C[C@H](N)[C@@H](O)CC(=O)O; Compound 6 = not defined here", "data": [{"molecule": "CC(C)C[C@H](NC(=O)[C@H](CC(N)=O)NC(=O)[C@@H](NC(=O)[C@@H](N)CCC(=O)O)C(C)C)[C@@H](O)CC(=O)N[C@H](C(=O)N[C@@H](C)C(=O)N[C@@H](CCC(=O)O)C(=O)N[C@@H](Cc1ccccc1)C(N)=O)C(C)C", "note": "[Statine-derived peptide inhibitor, H-Glu-Val-Asn-Statine-Val-Ala-Glu-Phe-NH2] (H-EVN[Sta]VAEF-NH2)", "values": [{"measurement": "IC50", "setting": "[1]", "result": 57, "unit": "nM"}]}, {"molecule": "C[S+](C)[O-]", "note": "[DMSO, dimethyl sulfoxide]", "values": [{"measurement": "reduction of BACE-1 protease enzyme activity", "setting": "BACE-1 protease enzyme; DMSO 2%", "result": "≤ 10", "unit": "%"}, {"measurement": "decrease of BACE-1 enzyme activity", "setting": "BACE-1 protease enzyme; DMSO 5%", "result": 20, "unit": "%"}, {"measurement": "decrease of BACE-1 enzyme activity", "setting": "BACE-1 protease enzyme; DMSO 10%", "result": 35, "unit": "%"}, {"measurement": "effect on cleavage of peptide substrate", "setting": "HIV-1 protease", "result": "no significant effect"}]}, {"molecule": "Structure IV: β-secretase (BACE-1) protease substrate peptide conjugated to NIR Reporter Dye A and Compound 6 (SEQ ID NO:5) ({NIR Reporter Dye A}-SEVNLDAEFRK(Compound 6)RR-OH; reading uncertain)", "values": [{"measurement": "fluorescence intensity increase over substrate not treated by enzyme", "setting": "[2]; room temperature", "result": 12, "unit": "fold"}, {"measurement": "degree of hydrolysis of BACE-1 peptide", "setting": "[2]; from fluorescence standard curve", "result": 53, "unit": "%"}]}, {"molecule": "aprotinin", "values": [{"measurement": "fluorescence intensity change between total trypsin activity suppression and no inhibition", "setting": "trypsin", "result": "more than 20 fold"}]}]}
